Data set [1] deals with myelodysplastic syndromes (MDS) patients. The note with it: cited from earlier work.
In the next data set the target is T1, CD19 (human, UniProt P15391 20-556).
T1 sequence (looked up): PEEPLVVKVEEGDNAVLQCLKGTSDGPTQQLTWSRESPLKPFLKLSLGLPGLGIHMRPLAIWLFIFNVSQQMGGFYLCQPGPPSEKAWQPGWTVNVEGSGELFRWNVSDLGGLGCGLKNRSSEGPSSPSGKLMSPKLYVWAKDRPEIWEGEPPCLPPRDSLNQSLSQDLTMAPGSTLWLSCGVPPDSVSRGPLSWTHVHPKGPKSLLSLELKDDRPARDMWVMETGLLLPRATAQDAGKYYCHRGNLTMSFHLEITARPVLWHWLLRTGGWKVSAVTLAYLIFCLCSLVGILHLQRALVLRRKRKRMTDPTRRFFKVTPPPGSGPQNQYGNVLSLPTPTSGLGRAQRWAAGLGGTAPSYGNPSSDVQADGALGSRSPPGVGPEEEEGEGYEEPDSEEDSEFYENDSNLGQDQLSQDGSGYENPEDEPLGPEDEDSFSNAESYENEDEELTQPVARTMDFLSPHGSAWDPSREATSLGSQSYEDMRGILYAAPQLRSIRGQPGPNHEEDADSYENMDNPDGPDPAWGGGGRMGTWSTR
Put plainly: cell-based or functional assay.

[2] abbreviates: patients with a del(5q) chromosomal abnormality.

The text below walks through data of patent publication US20220305132A1, “COMBINATION THERAPY COMPRISING AN ANTI-CD19 ANTIBODY DRUG CONJUGATE AND A PI3K INHIBITOR OR A SECONDARY AGENT” (ADC THERAPEUTICS SA, priority 2019, published 2022).

On to `Nc1cccc2c1CN(C1CCC(=O)NC1=O)C2=O` (racemic) [Lenalidomide, 3-(7-amino-3-oxo-1H-isoindol-2-yl)piperidine-2,6-dione], for which the Adverse events result in data set [1] (MDS patients) is “neutropenia and thrombocytopenia, pruritus, rash, diarrhea”. Moreover, the “transfusion independence or a reduction of at least 50% of pre-treatment RBC transfusion levels” value in data set [1] (non-del(5q) patients with confirmed low- and intermediate-1 risk) was 43 % of patients. Moreover, in data set [1] (setting [2]), the complete cytogenetic remission is 45 % of patients, the minor cytogenetic remission is on record as 28% and the “red blood cell (RBC) transfusion independence” value is given as 67 % of patients.

B1: ADCx19 (antibody, V domains shown)
VH: QVQLVQPGAEVVKPGASVKLSCKTSGYTFTSNWMHWVKQAPGQGLEWIGEIDPSDSYTNYNQNFQGKAKLTVDKSTSTAYMEVSSLRSDDTAVYYCARGSNPYYYAMDYWGQGTSVTVS
VL: EIVLTQSPAIMSASPGERVTMTCSASSGVNYMHWYQQKPGTSPRRWIYDTSKLASGVPARFSGSGSGTSYSLTISSMEPEDAATYYCHQRGSYTFGGGTKLEIK
Regarding B1, the “Median IC50, MTT proliferation assay, 96 h exposure, 48 B-cell lymphoma lines” value with CD19 worked out at 4 pM.
